Laboratory results published in patent US12441767B2 (priority 2020, dated 2025).
“Also recorded” adds a separate entry of the source. Where two headings read alike, the source gives them in different places. Ends that are not written are not given here.

Assays:
[1] = as reported in the literature; cited from earlier work
[2] = tested on: p-Erk1/2; assay type: cell-based, human
[3] = tested on: human ES cells; experiment: Morphology (colony formation) of human ES cells after five serial passages; assay type: cell-based
Description: Two groups were prepared, with four different culture media (E6, E6+TGFβ1, E6+FGF2 and E8) in each group, and the peptide P13 was added to the 4 culture media in group 1. A total of eight different culture media were prepared.
The human ES cells were serially passaged five times under eight different conditions to detect the differences of morphologies and pluripotency markers. Please refer to FIG. 2a for the morphological difference results observed after five passages.
On the basis of the preliminary results, three groups were prepared, with four different culture media (E6, E6+TGFβ1, E6+FGF2 and E8) in each group, the peptide M6 was added to the four culture media in group 1, respectively, and the P13 was added in another group as the control. In this way, a total of twelve different culture media were prepared.
The human ES cells were serially passaged five times under 12 different conditions to detect the differences of morphologies and pluripotency markers. Please refer to FIG. 3a for the morphological difference results obtained after five passages (in the figure, the samples from left to right were E6, E6+P13, E6+TGFβ1, E6+TGFβ1+P13, E6+FGF2, E6+FGF2+P13, E8 and E8+P13).

[4] = tested on: human ES cells; experiment: Cell-penetrating ability of FITC-labeled peptides, confocal microscopy; assay type: cell-based; settings: 24 h
Description: The human ES cells were treated with FITC-labeled P13 and M6 for 24 h, respectively, and the positions of the peptides were confirmed under a confocal microscope by immunostaining with nuclear dye combined with cytoplasmic membrane dye.
Immunostaining of human ES cells treated with the fluorescently labeled P13/M6: Human ES cells were cultured on a sterile cover slide, and a 12-well plate was coated with matrix gel at a concentration of 1 mg/ml for 1-2 h. After 24 h, the cells were washed with a DMEM-F12 culture medium, the E8 culture medium was used for replacement, and the cells were treated with the fluorescently labeled peptide for 24 h. Then, the cell membranes were stained by using the CellMask™ crimson plasma membrane (Thermo Fisher), and incubation was performed at 37° C. for 10 min. The staining solution was removed, 200 μL of 4.0% formaldehyde was added to the culture medium, and incubation was performed at 37° C. for 10 min. The culture medium was then removed. The cells were washed with 1×PBS three times and incubated with 10 μl of DAPI (a DNA staining agent) and a mounting medium for one minute, and the cover slide was mounted and sealed with nail polish to prevent drying. The samples were imaged with a Carl Zeiss confocal LSM710 microscope.

[5] = tested on: p-Smad2; assay type: cell-based, human
[6] = tested on: OCT4, SOX2 and NANOG; experiment: qPCR of self-renewal markers in human ES cells after five passages; assay type: cell-based; settings: for expression levels of SOX2 and NANOG: one-way ANOVA ***p<0.001
Source text: The self-renewal markers of the human ES cells were detected by using a quantitative polymerase chain reaction (qPCR) method.
The differential expressions of mRNAs of OCT4, SOX2 and NANOG were detected under the culture conditions of the above eight different culture media. Please refer to FIG. 2b for the detection results.
The self-renewal markers of the human ES cells were detected by using qPCR assay.
The differential expressions of mRNAs of OCT4, SOX2 and NANOG were detected under 12 different conditions. Please refer to FIG. 3b for the detection results (in the figure, the samples from left to right were E6, E6+P13, E6+M6, E6+TGFβ1, E6+TGFβ1+P13, E6+TGFβ1+M6, E6+FGF2, E6+FGF2+P13, E6+FGF2+M6, E8, E8+P13 and E8+M6).

[7] = tested on: human ES cells; experiment: Survival / proliferation of human ES cells (cell number by flow cytometry); assay type: cell-based; settings: E8 culture medium + peptide vs E8 culture medium; 24 h; P13 final concentration 200 μM; one-way ANOVA
[8] = E6 culture medium + peptide vs E6 control culture medium

Molecule: N=C(N)NCCC[C@H](N)C(=O)O [arginine]
- heparin-binding affinity relative to lysine [1]: 2.5 times

Molecule: FGF2: growth factor component of the E8 culture medium, 16.4 kDa
- p-Erk1/2 expression ([2]; growth factor in E6 culture medium (FIG. 5d lanes 1-2)): up-regulated

Molecule: Gonearrestide (WCYKLPDRVSIKEKGRCN-NH2; cysteine pairing not given here) [P13]
- expression level of p-Erk1/2 [2, 8]: significantly up-regulated
- expression level of p-Erk1/2 ([2]; E6 with P13 and/or FGF2 vs E6+TGFβ1): up-regulated
- expression level of p-Erk1/2 ([2]; E8 with P13 vs E8): not significantly up-regulated
- colony-forming morphology of human ES cells ([3]; E6+TGFβ + peptide, after five passages, vs E6+TGFβ): still maintained their colony morphologies; also recorded: maintained their colony-forming morphologies; also recorded: mixed state of colonies and dispersed cells
- morphology of human ES cells ([3]; peptide added to E6+FGF2, five generations): no significant morphological differences; also recorded: no significant difference in their morphologies
- morphology of human ES cells ([3]; peptide added to E8, five generations): no significant morphological differences; also recorded: no significant difference in their morphologies
- position of FITC-labeled peptide in human ES cells ([4]; E8, confocal microscope): bound to the plasma membranes
- cell-penetrating peptide (CPP) property ([4]; none found in cytoplasm): did not belong to the CPP family
- expression level of p-Smad2 [5, 8]: significantly up-regulated
- expression level of p-Smad2 ([5]; E6 with P13 and/or TGFβ1 vs E6+FGF2): up-regulated
- expression level of p-Smad2 ([5]; E8 with P13 vs E8): up-regulated
- mRNA expression levels of OCT4, SOX2 and NANOG ([6]; E6 + peptide in comparison with other conditions, five passages): low mRNA expression levels
- expression levels of SOX2 and NANOG ([6]; E6+FGF2 + peptide vs E6): significantly up-regulated
- mRNA expression of OCT4, SOX2 and NANOG ([6]; E6+TGFβ1 + peptide vs E6+TGFβ1): up-regulated
- expression levels of SOX2 and NANOG ([6]; E8 + peptide vs E6): significantly up-regulated
- number of human ES cells that survived [7]: significantly higher

Molecule: TGFβ1: growth factor component of the E8 culture medium, 25.6 kDa homodimer linked by a disulfide bond
- p-Erk1/2 expression ([2]; E6 with M6 or TGFβ in presence of SB431542 (10 μmol) / A8301 (1.0 μmol)): not observed
- p-Smad2 expression ([5]; E6 with 1.0 μmol LDN189193 treated with TGFβ or M6 vs E6 with 1.0 μmol LDN189193): up-regulated
- p-Smad2 expression ([5]; growth factor in E6 culture medium (FIG. 5d lanes 3-4)): up-regulated
